# According to the NIST ThermoML archive (doi:10.1016/j.fluid.2014.01.019):
# Numbers after ± are expanded uncertainties.
# Conditions: Liquid; for mass density: 101.33 kPa, Vibrating tube method; for speed of sound: 101 kPa, Frequency=2 MHz, Linear variable-path acoustic interferometer
SMILES,mass density (298.15 K),speed of sound (303.15 K),mass density (303.15 K),mass density (308.15 K),speed of sound (313.15 K),mass density (313.15 K)
Cc1cccc(Cl)c1 [3-chlorotoluene],1067.25 ± 0.15 kg/m3,1281 ± 8 m/s,1062.79 ± 0.15 kg/m3,1058.29 ± 0.15 kg/m3,1247 ± 8 m/s,1053.49 ± 0.15 kg/m3
Cc1ccc(Cl)cc1 [4-chlorotoluene],1064.93 ± 0.16 kg/m3,1274 ± 8 m/s,1059.56 ± 0.16 kg/m3,1054.27 ± 0.15 kg/m3,1237 ± 8 m/s,1049.29 ± 0.15 kg/m3
OCc1ccccc1 [benzenemethanol],1041.44 ± 0.14 kg/m3,1514 ± 9 m/s,1037.67 ± 0.14 kg/m3,1033.75 ± 0.14 kg/m3,1485 ± 9 m/s,1029.91 ± 0.14 kg/m3
Cc1ccccc1[N+](=O)[O-] [2-nitrotoluene],1159.6 ± 0.19 kg/m3,1439 ± 9 m/s,1153.29 ± 0.18 kg/m3,1149.78 ± 0.18 kg/m3,1403 ± 9 m/s,1144.91 ± 0.18 kg/m3
Cc1ccccc1Cl [2-chlorotoluene],1076.47 ± 0.15 kg/m3,1285 ± 8 m/s,1072.86 ± 0.15 kg/m3,1068.21 ± 0.15 kg/m3,1248 ± 8 m/s,1064.01 ± 0.15 kg/m3
Cc1cccc([N+](=O)[O-])c1 [3-nitrotoluene],1152.23 ± 0.18 kg/m3,1442 ± 9 m/s,1147.67 ± 0.18 kg/m3,1142.67 ± 0.18 kg/m3,1409 ± 9 m/s,1137.98 ± 0.18 kg/m3
